Assay results as given in ChEMBL document CHEMBL3091405, “Novel glycosylated endomorphin-2 analog produces potent centrally-mediated antinociception in mice after peripheral administration” (Bioorg Med Chem Lett, 2013).
The source made the active and inactive calls. No cut-off for these calls is given here. Residues, ends and D or L forms follow the SMILES beside them. *: point of attachment. X1 = CC(=O)OC[C@H]1O[C@@H](*)[C@H](OC(C)=O)[C@@H](OC(C)=O)[C@@H]1OC(C)=O; βGlc = OC[C@H]1O[C@@H](*)[C@H](O)[C@@H](O)[C@@H]1O

Experiments:
Mus musculus [1] = experiment: Antinociceptive activity in mouse assessed as prolongation time to jump at 3 mg/kg, iv by hot plate test; type: functional, organism-based; set-up: dose 3 mg/kg
Mu-type opioid receptor [2] = biological target: Mu-type opioid receptor (Rattus norvegicus, UniProt P33535); experiment: Displacement of [3H]DAMGO from Wistar rat brain mu opioid receptor by liquid scintillation counting analysis
Mu-type opioid receptor (Rattus norvegicus, UniProt P33535), sequence (P33535 whole entry): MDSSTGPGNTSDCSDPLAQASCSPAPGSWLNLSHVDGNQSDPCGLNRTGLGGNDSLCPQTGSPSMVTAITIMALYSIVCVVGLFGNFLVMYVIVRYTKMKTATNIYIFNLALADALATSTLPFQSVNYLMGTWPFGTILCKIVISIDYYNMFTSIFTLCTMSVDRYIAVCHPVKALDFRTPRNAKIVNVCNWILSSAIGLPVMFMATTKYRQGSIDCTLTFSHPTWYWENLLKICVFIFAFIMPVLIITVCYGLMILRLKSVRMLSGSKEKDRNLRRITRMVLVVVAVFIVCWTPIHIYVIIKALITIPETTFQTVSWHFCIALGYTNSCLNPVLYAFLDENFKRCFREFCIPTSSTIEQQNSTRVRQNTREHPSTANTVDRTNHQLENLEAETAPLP

Mu-type opioid receptor [3] = biological target: Mu-type opioid receptor (Cavia porcellus, UniProt P97266); experiment: Agonist activity at mu opioid receptor in guinea pig ileum; type: tissue-based
Mu-type opioid receptor (Cavia porcellus, UniProt P97266), sequence (P97266 whole entry): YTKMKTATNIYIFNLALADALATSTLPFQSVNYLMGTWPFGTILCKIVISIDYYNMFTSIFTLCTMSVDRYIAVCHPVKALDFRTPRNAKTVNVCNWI

Mus musculus [4] = experiment: Antinociceptive activity in mouse assessed as prolongation time to jump at 3 mg/kg, iv by hot plate test in presence of opioid receptor antagonist NALME; type: functional, organism-based; set-up: dose 3 mg/kg
Plasma [5] = experiment: Drug metabolism in mouse plasma assessed as degycosylated metabolite formation at 3 mg/kg, iv after 10 mins by mass spectrometric analysis; type: ADME, organism-based; set-up: dose 3 mg/kg, route intravenous; conditions: in vivo
Plasma [6] = experiment: Drug metabolism in mouse plasma assessed as glucuronic metabolite formation at 3 mg/kg, iv after 10 mins by mass spectrometric analysis; type: ADME, organism-based; set-up: dose 3 mg/kg, route intravenous; conditions: in vivo

Compound | Activity (Mus musculus [1]) | IC50 (Mu-type opioid receptor [2]) | IC50 (Mu-type opioid receptor [3]) | Activity (Mus musculus [4]) | Drug metabolism (Plasma [5]) | Drug metabolism (Plasma [6])
NC(=O)[C@H](Cc1ccccc1)NC(=O)[C@H](Cc1ccccc1)NC(=O)[C@@H]1CCCN1C(=O)[C@@H](N)Cc1ccc(O)cc1 | inactive |  |  |  |  | 
CC(=O)OC[C@H]1O[C@@H](Oc2ccc(C[C@H](NC(=O)[C@@H]3CCCN3C(=O)[C@@H](N)Cc3ccc(O)cc3)C(=O)N[C@@H](Cc3ccccc3)C(N)=O)cc2)[C@H](OC(C)=O)[C@@H](OC(C)=O)[C@@H]1OC(C)=O (H-YPY(X1)F-NH2) |  | > 1000 nM | > 1000 nM |  |  | 
NC(=O)[C@H](Cc1ccccc1)NC(=O)[C@H](Cc1ccc(O[C@@H]2O[C@H](CO)[C@@H](O)[C@H](O)[C@H]2O)cc1)NC(=O)[C@@H]1CCCN1C(=O)[C@@H](N)Cc1ccc(O)cc1 (H-YPY(βGlc)F-NH2) | Active | 73.2 nM | 16.1 nM | Active | Active | Active
